Data: article PMC7480105, “Wbox2: A clathrin terminal domain–derived peptide inhibitor of clathrin-mediated endocytosis” (The Journal of Cell Biology, 2020)

Columns and labels:
[1] = test system: TD–AP2 interactions; assay: GST-TD (1–580) pulldown of AP2 from mouse brain extract; format: biochemical; conditions: increasing peptide concentrations, overnight at 4°C, Western blot, three independent runs (Fig. 9 B, C)
Protocol: A mouse brain was homogenized using a Dounce tissue grinder (Sartorius) in 1 ml MES buffer (100 mM Mes, 1 mM EGTA, 0.5 mM MgCl2, and 0.1 mM PMSF, pH 6.4). After spinning at 5,000 g and 4°C for 3 min, the supernatant was ultracentrifuged at 110,000 g for 60 min. The resulting pellet was then resuspended in extraction buffer (3 vol of 1 M Tris, pH 8, 1 vol Mes buffer, with added PMSF and DTT to 0.1 mM each) for 30 min at room temperature. The resuspended solution was ultracentrifuged at 110,000 g for 60 min to collect supernatant containing released coat proteins. The brain extract buffer was exchanged to pulldown reaction buffer (50 mM Tris, 150 mM NaCl, and 0.1 mM EGTA, pH 7.5) using zeba spin desalting columns (Thermo Fisher Scientific).
In the pulldown assay, 75 µg GST-TD (residues 1–580) in reaction buffer was mixed with coat protein fractions (10% of total extract from a mouse brain) and the indicated concentrations of peptides. The mixture was incubated with 50 µl of a 50% slurry of glutathione Sepharose 4B beads (ABT) and left to rotate overnight at 4°C. Subsequently, beads were collected by spinning down at 1,000 g for 2 min and washed twice with reaction buffer. The beads were resuspended in Laemmli sample buffer and denatured at 95°C before running on 7.5% SDS-PAGE and Western blotting.

[2] = target: SNX9 (Homo sapiens, UniProt Q9Y5X1); assay: Isothermal titration calorimetry with SNX9; format: binding; conditions: ITC, 1.8 mM peptide injected into 50 µM SNX9
Chain of SNX9 (Q9Y5X1 whole entry, species assumed): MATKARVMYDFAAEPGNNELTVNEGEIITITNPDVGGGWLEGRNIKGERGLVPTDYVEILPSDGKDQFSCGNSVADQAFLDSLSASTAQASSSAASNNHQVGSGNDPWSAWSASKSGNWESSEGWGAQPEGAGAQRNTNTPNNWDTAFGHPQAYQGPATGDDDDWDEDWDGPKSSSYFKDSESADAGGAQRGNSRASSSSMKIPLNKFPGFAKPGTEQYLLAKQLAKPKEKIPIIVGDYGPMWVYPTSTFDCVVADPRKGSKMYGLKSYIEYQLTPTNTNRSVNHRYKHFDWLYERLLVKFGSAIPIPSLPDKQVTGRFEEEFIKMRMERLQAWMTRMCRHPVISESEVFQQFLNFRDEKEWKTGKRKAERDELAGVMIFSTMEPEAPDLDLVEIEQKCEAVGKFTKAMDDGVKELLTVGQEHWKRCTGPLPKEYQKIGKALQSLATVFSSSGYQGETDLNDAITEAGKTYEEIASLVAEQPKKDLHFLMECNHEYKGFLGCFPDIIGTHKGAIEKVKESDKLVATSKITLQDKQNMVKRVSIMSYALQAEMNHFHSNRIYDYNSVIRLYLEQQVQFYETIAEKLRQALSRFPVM
Description: GUSSI was further used to output the figures presented.

[3] = test system: TfnR uptake via CME in ARPE/HPV cells; assay: TfnR uptake (in-cell ELISA) after peptide preincubation; format: cell-based; conditions: 60-min preincubation at 37°C (Fig. 7 F), TAT at concentrations <100 µM
Protocol: Peptides encoding the TAT sequence (YGRKKRRQRRR) followed by 10 amino acid sequences covering the four reported binding sites on the clathrin terminal domain (Fig. 7 A) were synthesized by GenScript (Piscataway, NJ) with >95% purity. Peptides were dissolved in dH2O and further diluted in PBS4+ (1× PBS buffer plus 0.2% BSA, 1 mM CaCl2, 1 mM MgCl2, and 5 mM D-glucose) or cell culture medium (for imaging) when applied to cells. Peptide solutions were stored at −20°C.
Internalization of TfnR, CD44, CD59, and Biotin-Tfn was quantified by in-cell ELISA following established protocols ([Conner and Schmid, 2003]; [Srinivasan et al., 2018]). Cells were seeded in 96-well plates (Costar) at 60–70% confluence and grown overnight. Before the assay, cells were starved for 30 min in PBS4+ at 37°C or treated with peptides in PBS4+ at 37°C for the indicated times. After starvation, cells were moved to 4°C, and culture medium was replaced with cold PBS4+ containing 5 µg/ml HTR-D65 (anti-TfnR mAb; [Schmid and Smythe, 1991]), anti-human CD44 or anti-human CD59 (BD PharMingen) or 5 µg/ml Biotin-Tfn (Sigma-Aldrich). For single-round assays, the above reagents were kept with cells for 20 min at 4°C and then washed out before uptake assay. For multiround assays, the above reagents were kept with cells throughout the uptake process. In parallel, some cells were kept at 4°C for the measurement of surface-bound ligands and blank controls, and some were incubated in a 37°C water bath for the indicated times. Acid wash (0.2 M acetic acid and 0.2 M NaCl, pH 2.3) was used to remove surface-bound antibodies, followed by washing with cold PBS. All were fixed with 4% PFA (Electron Microscopy Sciences) in PBS for 30 min at 37°C. 0.1% Triton X-100 was added for 6.5 min to permeabilize cells, followed by addition of blocking buffer. HTR-D65–, CD44-, and CD59-treated cells were blocked with Q-PBS (PBS, 2% BSA, 0.1% lysine, and 0.01% saponin, pH 7.4), and Biotin-Tfn–treated cells were blocked with 2% casein. Surface-bound and internalized HTR-D65, CD44, and CD59 were probed with goat anti-mouse antibody conjugated with HRP (Sigma-Aldrich), and Biotin-Tfn was probed with Streptavidin-POD conjugate (Sigma-Aldrich). Color was developed using o-phenylenediamine dihydrochloride (OPD) solution (Sigma-Aldrich), and absorbance was read at 490 nm (Biotek Synergy H1 Hybrid Reader). Cell number variation among wells was accounted for by bicinchoninic acid assay reading at 562 nm.

[4] = test system: cytotoxicity; parameters: method as in Rosselli-Murai et al., 2018; conditions: ref Rosselli-Murai et al., 2018; cited from earlier work

| Substance | inhibition of AP2 pulldown by GST-TD [1] | interaction with SNX9 compared with Wbox2 [2] | inhibitory activity on TfnR uptake, concentration curve [3] | cytotoxic concentration relative to CME-inhibitory concentration [4] |
| --- | --- | --- | --- | --- |
| YGRKKRRQRRR [TAT, arginine-rich TAT peptide, negative control, reference compound] | much weaker inhibition | much weaker interactions | did not inhibit |  |
| pitstop |  |  |  | cytotoxic at concentrations only approximately twofold higher |
